Columns and labels:
[1] = molecular target: T1, rat intestinal fatty acid binding protein (rI-FABP, SEQ ID NO: 3) variant L24P19C7, 14R 18L 38V 60R 73F 106C 115R 117D, SEQ ID NO: 36 (Rattus norvegicus, UniProt P02693, A74F/L39V/L73A/M19L/Q116R/R107C/V61R/Y118D/Y15R); assay: bilirubin binding to L24P19C7 probe (fluorescence titration)
T1 construct: made in house
Method: Also described are analytical/mathematical methods for calibrating and using the bilirubin probes. Bilirubin probes are calibrated to determine their binding affinity for bilirubin (dissociation constant Kd) under conditions, such as temperature, pH and solution composition, that correspond to samples in which it is desired to know the unbound bilirubin concentration. Binding isotherms are performed in aqueous buffer by measuring the change in fluorescence of the bilirubin probes in response to increasing bilirubin concentrations (“titration data”). The set of fluorescence responses at each bilirubin concentration are fitted with an appropriate equation (“calibration equation”) that correctly describes the fluorescence response as a function of the bilirubin concentration, the probe concentration, specific spectroscopic characteristics, and the Kd. […] Bilirubin probes are derived from a rat intestinal fatty acid binding protein (rI-FABP) as described previously for unbound FFA (FFAu) probes in U.S. Pat. No. 7,601,510, U.S. publication 2010/0298162 and [Huber A H, Zhu […] and […]. Fluorescence Sensor for the Quantification of Unbound Bilirubin Concentrations. Clin Chem 58: 869-876, 2012; Huber […], Zhu B and […]. Fatty acid-specific fluorescent probes and their use in resolving mixtures of different unbound free fatty acids in equilibrium with albumin. […]

[2] = molecular target: T2, rI-FABP (SEQ ID NO: 3) variant L24P19 C7 K27K 24C, 14R 18L 24C 38V 60R 73F 106C 115R 117D (Rattus norvegicus, UniProt P02693, A74F/L39V/L73A/M19L/N25C/Q116R/R107C/V61R/Y118D/Y15R); assay: bilirubin binding to L24P19C7 24C probe; conditions: Table 5, acrylodan
T2 construct: made in house
T2 sequence (P02693 with tags, fused parts or gaps Y15R/M19L/N25C/L39V/V61R/L73A/A74F/R107C/Q116R/Y118D): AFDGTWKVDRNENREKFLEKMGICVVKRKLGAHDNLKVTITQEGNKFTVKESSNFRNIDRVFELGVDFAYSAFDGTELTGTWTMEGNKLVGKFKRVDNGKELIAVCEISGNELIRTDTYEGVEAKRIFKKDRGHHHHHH
Method: (§1) Also described are analytical/mathematical methods for calibrating and using the bilirubin probes. Bilirubin probes are calibrated to determine their binding affinity for bilirubin (dissociation constant Kd) under conditions, such as temperature, pH and solution composition, that correspond to samples in which it is desired to know the unbound bilirubin concentration. Binding isotherms are performed in aqueous buffer by measuring the change in fluorescence of the bilirubin probes in response to increasing bilirubin concentrations (“titration data”). The set of fluorescence responses at each bilirubin concentration are fitted with an appropriate equation (“calibration equation”) that correctly describes the fluorescence response as a function of the bilirubin concentration, the probe concentration, specific spectroscopic characteristics, and the Kd.
. […] The optimal probe performance was obtained with cysteine at positions 25 or 26.

[3] = molecular target: T3, rI-FABP (SEQ ID NO: 3) variant L2P14F7-MGCFD, MGCFD - 18G 31M 72A (Rattus norvegicus, UniProt P02693, A2G/G32M/INS2C/L73A/M19G); assay: bilirubin binding to L2P14F7-MGCFD probe; conditions: Table 5, Texas Red C2-Maleimide
T3 construct: made in house
T3 sequence (P02693 with tags, fused parts or gaps M19G/G32M/L73A): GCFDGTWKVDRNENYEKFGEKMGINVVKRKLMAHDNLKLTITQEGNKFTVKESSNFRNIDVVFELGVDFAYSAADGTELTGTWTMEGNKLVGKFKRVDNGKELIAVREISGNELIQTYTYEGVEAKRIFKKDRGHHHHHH
Method: as §1

T1 sequence (P02693 with tags, fused parts or gaps Y15R/M19L/L39V/V61R/L73A/A74F/R107C/Q116R/Y118D): as the sequence (P02693 with tags, fused parts or gaps Y15R/M19L/N25C/L39V/V61R/L73A/A74F/R107C/Q116R/Y118D) above, with C24N counted along it

For `C=CC1=C(C)/C(=C/c2[nH]c(Cc3[nH]c(/C=C4\NC(=O)C(C)=C4C=C)c(C)c3CCC(=O)O)c(CCC(=O)O)c2C)NC1=O` [bilirubin], the Kd ([1]; 22° C., aqueous bilirubin, acrylodan label) was 22 nM, the Kd ([1]; Table 5, acrylodan) was 35 nM and the Kd [2] was 89 nM. For the same compound, the Kd [3] was 400 nM.
